Test results published in article PMC2802001, “Binding of Natural and Synthetic Polyphenols to Human Dihydrofolate Reductase” (International Journal of Molecular Sciences, 2009).
Where “and” joins values, the source holds several entries; their conditions need not be identical. Equal values may be shown once. Entries after “also recorded” stand apart in the source; their conditions may differ.

Tests used:
human DHFR [1] = target: T1, human DHFR (Homo sapiens, UniProt P00374); assay: Human DHFR activity assayed in the presence of tea catechins; format: biochemical
T1 construct: purchased Sigma
T1 sequence (P00374 1-187): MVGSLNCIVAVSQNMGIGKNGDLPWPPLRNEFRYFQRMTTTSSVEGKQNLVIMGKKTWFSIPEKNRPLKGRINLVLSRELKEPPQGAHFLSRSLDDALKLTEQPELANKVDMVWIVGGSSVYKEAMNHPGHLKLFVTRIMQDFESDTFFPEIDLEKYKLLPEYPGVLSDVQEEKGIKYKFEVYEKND
Protocol: In order to detect which components of these extracts were responsible for such inhibition, human DHFR activity was assayed in the presence of EC, EGC, ECG or EGCG. […] The effective binding of ECG to free human DHFR was determined by following the decrease in enzyme fluorescence that occurs after formation of the enzyme-inhibitor complex (Figure 3).

human DHFR [2] = target: T1, human DHFR; assay: Fluorescence titration (quenching of tryptophan fluorescence) for binding to free DHFR; conditions: for Kd / Binding to human DHFR (effect on enzyme fluorescence), in words: fluorescence quenching; for Kd: excitation 290 nm, enzyme 0.1 μM, pH 7.4, read-out: KD, dissociation constant for binding to human DHFR
Protocol: Highly purified tea polyphenols EGCG (>95%), ECG (>98%), EGC (>98%), and EC (>98%) were purchased from Sigma Chemical Co. (Madrid, Spain). Qgal, Qglc, Qrha and Qxyl were form Fluka (Madrid, Spain). […] To synthesize TMECG-QM, a TMECG solution (0.5 mM) in phosphate buffered saline (PBS), pH 7.0, was alkalinize at pH 8.5 with NaOH. The reaction was followed spectrophotometrically at 470 nm and, after completion, the sample was neutralized by adding HCl. Recombinant human DHFR was purchased from Sigma and its concentration was determined by MTX titration of enzyme fluorescence.
The fluorescence of DHFR is reduced on binding of substrates and inhibitors, and this property may be used as a convenient method for determining both the enzyme concentration and the dissociation constants of enzyme-ligands complexes. Dissociation constants for the binding of polyphenols to free DHFR were determined by fluorescence titration in an automatic-scanning Perkin-Elmer LS50B spectrofluorimeter with 1.0 cm light path cells and equipped with a 150W xenon (XBO) light source. The formation of the binary complex between the enzyme and the ligand was followed by measuring the quenching of tryptophan fluorescence of the enzyme upon addition of microliter volumes of a concentrated stock solution of ligand. Fluorescence emission spectra were recorded when DHFR fluorescence was excited at 290 nm. All measurements were corrected for dilution and the data from the titration curves were fitted as described previously. Titrations were performed in a buffer containing 2-(N-morpholino)ethanesulfonic acid (Mes, 0.025 M), sodium acetate (0.025 M), tris(hydroxymethyl)aminomethane (Tris 0.05 M), and NaCl (0.1 M), at pH 7.4.

bovine liver DHFR = system: bovine liver DHFR; set-up: method as in PMID 15781612; conditions: cited from earlier work
chicken liver DHFR = system: chicken liver DHFR; set-up: method as in PMID 15781612; conditions: cited from earlier work
[3] = Stability of TMECG in solution at neutral and alkaline pH; format: physicochemical
Protocol: Despite the excellent anticancer properties of tea catechins, they have at least one great limitation: their poor bioavailability. The reduced availability of catechins is related with their low stability in neutral or slightly alkaline solutions and their poor ability to cross cellular membranes. […] This synthetic catechin also bound human DHFR with an effective dissociation constant of 2.1 ± 0.2 μM (Figure 5; Table 1). […] By analogy with the oxidation of quercetin in alkaline solution [19], the proposed structure for this compound is depicted in Figure 6 and was identified as a quinone methide (TMECG-QM) with an open structure.
Highly purified tea polyphenols EGCG (>95%), ECG (>98%), EGC (>98%), and EC (>98%) were purchased from Sigma Chemical Co. (Madrid, Spain). Qgal, Qglc, Qrha and Qxyl were form Fluka (Madrid, Spain). TMECG was successfully synthesized (70% recovery) from catechin with the subsequent inversion of the stereochemistry at C-3 and by reaction of with 3,4,5-trimethoxybenzoylchloride (Sigma). To synthesize TMECG-QM, a TMECG solution (0.5 mM) in phosphate buffered saline (PBS), pH 7.0, was alkalinize at pH 8.5 with NaOH. The reaction was followed spectrophotometrically at 470 nm and, after completion, the sample was neutralized by adding HCl. Recombinant human DHFR was purchased from Sigma and its concentration was determined by MTX titration of enzyme fluorescence.

[4] = set-up: method as in PMID 18324763; conditions: cited from earlier work
[5] = system: different cancer cell lines; set-up: method as in PMID 18324763; conditions: cited from earlier work

SMILES	Inhibition of human DHFR activity, in words (human DHFR [1])	Kd (human DHFR [2])	other results
O=C(OC1Cc2c(O)cc(O)cc2OC1c1ccc(O)c(O)c1)c1cc(O)c(O)c(O)c1 (single isomer, unassigned; (-)) [ECG, (-)-epicatechin gallate]	potent inhibitors	1800 nM and 1780 nM	–
Oc1cc(O)c2c(c1)OC(c1cc(O)c(O)c(O)c1)C(O)C2 (single isomer, unassigned; (-)) [EGC, (-)-epigallocatechin]	did not inhibit	–	Binding to human DHFR (effect on enzyme fluorescence), in words (human DHFR [2]): did not bind
Oc1cc(O)c2c(c1)O[C@H](c1ccc(O)c(O)c1)[C@H](O)C2 [EC, (-)-epicatechin]	did not inhibit	–	Binding to human DHFR (effect on enzyme fluorescence), in words (human DHFR [2]): did not modify the emission spectra; also recorded: did not bind
O=C(O[C@@H]1Cc2c(O)cc(O)cc2O[C@@H]1c1cc(O)c(O)c(O)c1)c1cc(O)c(O)c(O)c1 [EGCG, (-)-epigallocatechin gallate]	potent inhibitors	900 nM and 920 nM	Type of inhibition of DHF reduction (bovine liver DHFR): slow-binding inhibitor; Type of inhibition of DHF reduction (chicken liver DHFR): classical, reversible, competitive inhibitor
O=c1c(O[C@@H]2O[C@H](CO)[C@H](O)[C@H](O)[C@H]2O)c(-c2ccc(O)c(O)c2)oc2cc(O)cc(O)c12 [Qgal, quercetin-3-D-galactoside]	–	22800 ± 3200 nM	–
O=c1c(O[C@@H]2O[C@H](CO)[C@@H](O)[C@H](O)[C@H]2O)c(-c2ccc(O)c(O)c2)oc2cc(O)cc(O)c12 [Qglc, quercetin-3-β-D-glucoside]	–	102000 ± 9000 nM	–
CC1OC(Oc2c(-c3ccc(O)c(O)c3)oc3cc(O)cc(O)c3c2=O)C(O)C(O)C1O (stereo not drawn) [Qrha, quercetin-3-rhamnoside]	–	17200 ± 2400 nM	–
O=c1c(OC2OCC(O)C(O)C2O)c(-c2ccc(O)c(O)c2)oc2cc(O)cc(O)c12 [Qxyl, quercetin-3-D-xyloside]	–	600 nM and 590 nM	–
COc1cc(C(=O)O[C@@H]2Cc3c(O)cc(O)cc3OC2c2ccc(O)c(O)c2)cc(OC)c1OC (stereo partly drawn) [TMECG, 3-O-(3,4,5-trimethoxybenzoyl)-(-)-epicatechin]	–	2100 ± 200 nM	Stability at alkaline pH ([3]; alkaline pH, band at 470 nm): rapidly evolves to an orange compound; Stability at neutral pH ([3]; neutral pH): highly stable; Bioavailability in vitro [4]: high bioavailability in vitro; Antiproliferative activity [5]: significant antiproliferative activity
COc1cc(C(=O)O[C@H](Cc2c(O)cc(O)cc2O)/C(O)=C2/C=CC(=O)C(O)=C2)cc(OC)c1OC [TMECG-QM]	–	–	Affinity for human DHFR relative to EGCG, ECG or TMECG (human DHFR [2]; compared with EGCG, ECG or TMECG): more than two-order of magnitude more strongly; Affinity for human DHFR relative to MTX (human DHFR [2]; compared with MTX): forty-times less
